# What was measured:
# [1] = tested on: Human immunodeficiency virus 1; test: Antiviral activity against HIV-1 IIIb infected in human MT2 cells assessed as reduction in virus induced cytopathic effect and measured after 5 days by XTT assay; format: functional, organism-based; conditions: Human immunodeficiency virus 1, IIIb, MT2, 120 h
# [2] = Inhibition of TNF-alpha release in LPS stimulated human PBMC; format: functional, cell-based
# SARS-CoV = test: Antiviral activity against SARS 2019-nCoV infected in African green monkey Vero E6 cells assessed as inhibition of viral infection preincubated and measured after 48 hrs by qRT-PCR analysis; format: functional; conditions: Severe acute respiratory syndrome-related coronavirus, Vero C1008
Structure (SMILES),EC50 [1] [µM],also measured
C[C@H](Cn1cnc2c(N)ncnc21)OCP(=O)(O)N[C@H](C)C(=O)O,10,–
C[C@H](Cn1cnc2c(N)ncnc21)OCP(=O)(O)O [TENOFOVIR ANHYDROUS],5,–
Nc1cccc2c1CN(C1CCC(=O)NC1=O)C2=O (centres undefined) [LENALIDOMIDE],–,IC50 [2]: 0.1 µM
CCC(CC)COC(=O)[C@H](C)N[P@](=O)(OC[C@H]1O[C@@](C#N)(c2ccc3c(N)ncnn23)[C@H](O)[C@@H]1O)Oc1ccccc1 [REMDESIVIR],–,EC90 (SARS-CoV): 1.76 µM

# Source: ChEMBL document CHEMBL5214899, “Tailor-made amino acids in the design of small-molecule blockbuster drugs” (Eur J Med Chem, 2021)
